Laboratory results reported in paper PMC7949251 (Journal of medicinal chemistry, 2020).

Experiments:
[1] = cited from earlier work
JAK2 JH2 = JAK2 JH2 (Homo sapiens, UniProt O60674, F794H/W659A/W777A); assay: Competitive fluorescence polarization
Chain of JAK2 JH2 (O60674 536-812 W659A/W777A/F794H): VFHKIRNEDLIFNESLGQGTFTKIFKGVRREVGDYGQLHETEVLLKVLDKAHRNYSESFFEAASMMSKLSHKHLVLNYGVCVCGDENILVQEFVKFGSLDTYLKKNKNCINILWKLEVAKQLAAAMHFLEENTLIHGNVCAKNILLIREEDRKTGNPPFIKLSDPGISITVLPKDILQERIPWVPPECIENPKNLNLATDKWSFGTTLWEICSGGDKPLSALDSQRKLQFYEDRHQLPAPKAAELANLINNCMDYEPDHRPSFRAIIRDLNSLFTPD

Row | Molecule | octanol/water log P [1] | also measured
1 | furan | 1.34 | 
2 | c1cscn1 [thiazole] | 0.44 | 
3 | Nc1nc(Nc2ccc(S(N)(=O)=O)cc2)nn1C(=O)Nc1ccccc1 [Compound 4, 5-amino-N-phenyl-3-((4-sulfamoylphenyl)amino)-1H-1,2,4-triazole-1-carboxamide] |  | improvement in JAK2 JH2 binding over 2 (JAK2 JH2; FP Kd relative to compound 2): 3 fold
4 | N#Cc1ccc(Nc2nc(N)n(C(=O)Nc3ccc(OCC(=O)O)cc3)n2)cc1 [Compound 9, 2-(4-(5-amino-3-((4-cyanophenyl)amino)-1H-1,2,4-triazole-1-carboxamido)phenoxy)acetic acid] |  | boost in binding strength with JAK2 JH2 compared to 4 (JAK2 JH2; FP Kd relative to compound 4): ca. 8 fold
5 | c1ccsc1 [thiophene] | 1.81 | 
6 | c1cocn1 [oxazole] | 0.12 | 
